{
  "source": "patent US20240247224A1",
  "about": "“SYSTEM AND METHOD FOR RAPID SUSCEPTIBILITY TESTING” (priority 2023, published 2024)",
  "key": {"NG 49226 (QC strain) [1]": {"tested_on": "NG 49226 (QC strain)", "experiment": "Optical scatter phenotypic AST on the instrument, NG 49226", "assay_type": "cell-based, Neisseria gonorrhoeae", "details": "read-out: Our MIC based on the curves", "source_text": "(§1) In one embodiment, the application of the system disclosed herein is to conduct phenotypic antimicrobial susceptibility testing on Neisseria gonorrhoeae (NG). NG is a fastidious organism and a difficult organism to culture in liquid nutrient broth. The instant invention uses a proprietary media designed for the broth culture of NG. Using specific antibiotics, each at multiple concentrations in each well within the cassette and allowing bacteria to culture in the presence of antibiotic, one can determine the phenotypic AST results. Data generated and illustrated in the figures was generated from samples ranging from single wells or a plurality of wells within one or more cassettes.\n(§2) In one embodiment, the application of the system is to conduct phenotypic antimicrobial susceptibility testing on NG. […]\n(§3) The workflow involves use of a sample preparation kit (if and as needed) to process the sample to be tested (based on the sample type). […] The cassette is then loaded into one of the open bays/readers within the instrument. The reader also has an RFID scanner to record the cassette location i.e., the bay/reader it is inserted into within the instrument. The cassette is then autonomously incubated within the instrument, during which all wells within the cassette are read independently by the reader at regular specified time intervals, until the test is complete. […]"}, "AR Isolate AR 0817": {"tested_on": "AR Isolate AR 0817", "experiment": "Optical scatter phenotypic AST on the instrument, AR Isolate AR 0817", "assay_type": "cell-based", "details": "Neisseria gonorrhoeae, FIG. 27, read-out: Our MIC from the instrument", "source_text": "as §1, §2, §3"}, "[2]": {"tested_on": "NG AR 0165 (Neisseria gonorrhoeae antibiotic resistant isolate 0165)", "experiment": "Optical scatter phenotypic AST on the instrument, NG AR 0165", "assay_type": "cell-based", "details": "normalized reading, 650 nm, FIG. 22, read-out: Our MIC based on the curves", "source_text": "as §1, §2, §3"}, "E coli 25922 (QC strain) [3]": {"tested_on": "E coli 25922 (QC strain)", "experiment": "Optical scatter phenotypic AST on the instrument, E coli 25922", "assay_type": "cell-based", "details": "normalized reading, 650 nm, FIG. 25, read-out: Our MIC based on the curves", "source_text": "(§4) In one embodiment, the application of the system is to conduct phenotypic antimicrobial susceptibility testing on gram positive and gram negative organisms from isolates or directly from a positive blood sample. In this embodiment, our method deploys a series of tightly controlled environmental factors, such as temperature, humidity, CO2, along with the use of Mueller-Hinton-II defined media allowing for the testing of these organisms as specified by CLSI. Using specific antibiotics, at various ranges, antibiotic classes, concentrations across the wells of the cassette and allowing bacteria to culture in the presence of antibiotic, one can determine the phenotypic AST results.\n(§5) The workflow involves use of a sample preparation kit (if and as needed) to process the sample to be tested (based on the sample type). […] The cassette is then loaded into one of the open bays/readers within the instrument. The reader also has an RFID scanner to record the cassette location i.e., the bay/reader it is inserted into within the instrument. The cassette is then autonomously incubated within the instrument, during which all wells within the cassette are read independently by the reader at regular specified time intervals, until the test is complete. […] Based on the statistical analysis, if the signal change was determined as significant for a given well that well is considered to have detected the analyte. […]"}, "[4]": {"tested_on": "NG AR 0165 (Neisseria gonorrhoeae antibiotic resistant isolate 0165)", "details": "FIG. 22; cited from earlier work"}, "NG 49226 (QC strain) [5]": {"tested_on": "NG 49226 (QC strain)", "details": "FIG. 24; cited from earlier work"}, "E coli 25922 (QC strain) [6]": {"tested_on": "E coli 25922 (QC strain)", "details": "FIG. 25; cited from earlier work"}, "K pneumoniae 700603": {"tested_on": "K pneumoniae 700603", "experiment": "Optical scatter phenotypic AST on the instrument, K pneumoniae 700603", "assay_type": "cell-based", "details": "K pneumoniae 700603 in CAMHB with blood (to mimic a positive blood culture vial); FIG. 30; read-out: Our MIC based on the curves", "source_text": "as §4, §5"}, "[7]": {"tested_on": "Staphylococcus aureus in diluted positive blood culture sample", "experiment": "Direct-from-positive blood culture AST on the instrument, Staphylococcus aureus", "assay_type": "cell-based", "details": "diluted positive blood culture sample from the clinical lab, FIG. 34, read-out: Our MIC based on the curves", "source_text": "(§6) In one embodiment, the application of the system is to conduct phenotypic antimicrobial susceptibility testing on gram positive and gram-negative organisms from a positive blood sample without plating for an isolate. In this embodiment, the positive blood sample is adjusted to the desired microbial concentration. In this embodiment our method deploys a series of tightly controlled environmental factors, such as temperature, humidity, CO2, along with the use of Mueller-Hinton-II defined media allowing for the testing of these organisms as specified by CLSI. […]\nas §3, with “complete. The test completion is determined either by the prespecified time period for the cassette to be run, or until the software algorithm running the data analysis in real-time determines the necessary change to the call to complete the test.” for “complete.”"}, "[8]": {"tested_on": "Staphylococcus aureus in diluted positive blood culture sample", "experiment": "In-house broth microdilution test (expected MIC), Staphylococcus aureus", "assay_type": "cell-based", "details": "clinical positive blood culture sample, FIG. 34, read-out: expected MIC value (based on in-house broth microdilution test)", "protocol": "(§7) BMD refers to liquid suspension of an isolated culture in the presence of varying types and concentrations of antibiotics. The liquid cultures are incubated for a period of time at which the turbidity or cloudiness of the suspension is measured either visually, optically or using other detection means. The turbidity is caused by bacteria multiplying and/or a “growing” culture (resistant), whereas a susceptible culture or isolate would appear as clear or lacking turbidity. Use of a reading device permits this process to be semi-automated."}, "[9]": {"tested_on": "NG AR 0179 (Neisseria gonorrhoeae antibiotic resistant isolate 0179)", "experiment": "Optical scatter phenotypic AST on the instrument, NG AR 0179", "assay_type": "cell-based", "details": "normalized reading, 650 nm, FIG. 23, read-out: Our MIC based on the curves", "source_text": "as §1, §2, §3"}, "[10]": {"tested_on": "S aureus 29213 (QC strain)", "experiment": "Optical scatter phenotypic AST on the instrument, S aureus 29213", "assay_type": "cell-based", "details": "S aureus 29213 (QC strain) in cation adjusted Mueller Hinton Broth (CAMHB); FIG. 28; read-out: Our MIC based on the curves", "source_text": "as §4, §5"}, "[11]": {"tested_on": "E faecalis 29212 (QC strain)", "experiment": "Optical scatter phenotypic AST on the instrument, E faecalis 29212", "assay_type": "cell-based", "details": "E faecalis 29212 (QC strain) in CAMHB with blood (to mimic a positive blood culture vial); FIG. 29; read-out: Our MIC based on the curves", "source_text": "as §4, §5"}, "[12]": {"tested_on": "E faecalis 29212 (QC strain)", "details": "FIG. 29; cited from earlier work"}, "[13]": {"tested_on": "Serratia marcescens in diluted positive blood culture sample", "experiment": "Direct-from-positive blood culture AST on the instrument, Serratia marcescens", "assay_type": "cell-based", "details": "diluted positive blood culture sample from the clinical lab, FIG. 33, read-out: Our MIC based on the curves", "source_text": "as §6\nas §3, with “complete. The test completion is determined either by the prespecified time period for the cassette to be run, or until the software algorithm running the data analysis in real-time determines the necessary change to the call to complete the test.” for “complete.”"}, "[14]": {"tested_on": "Serratia marcescens in diluted positive blood culture sample", "experiment": "In-house broth microdilution test (expected MIC), Serratia marcescens", "assay_type": "cell-based", "details": "clinical positive blood culture sample, FIG. 33, read-out: expected MIC value (based on in-house broth microdilution test)", "protocol": "as §7"}},
  "note": "Like-named read-outs stand apart in the source and are kept apart here.",
  "data": [
    {"molecule": "C=CC1=C(C(=O)O)N2C(=O)[C@@H](NC(=O)/C(=N\\OCC(=O)O)c3csc(N)n3)[C@H]2SC1", "note": "[Cefixime]", "values": [
      {"measurement": "MIC", "setting": "NG 49226 (QC strain) [1]; Neisseria gonorrhoeae 49226 (QC strain), 5-well cassette system, FIG. 26", "result": 0.008, "unit": "mg/L"},
      {"measurement": "MIC", "setting": "AR Isolate AR 0817", "result": 0.125, "unit": "mg/L"}
    ]},
    {"molecule": "O=C(O)c1cn(C2CC2)c2cc(N3CCNCC3)c(F)cc2c1=O", "note": "[Ciprofloxacin]", "values": [
      {"measurement": "MIC", "setting": "[2]", "result": 4, "unit": "mg/L"},
      {"measurement": "MIC", "setting": "NG 49226 (QC strain) [1]; Neisseria gonorrhoeae, NG 49226 (QC strain), normalized reading, 650 nm, FIG. 24", "result": 0.002, "unit": "mg/L"},
      {"measurement": "MIC", "setting": "E coli 25922 (QC strain) [3]", "result": 0.008, "unit": "mg/L"},
      {"measurement": "expected MIC value (per CDC agar dilution testing)", "setting": "[4]", "result": 8, "unit": "mg/L"},
      {"measurement": "expected MIC value range (per CDC agar dilution testing)", "setting": "NG 49226 (QC strain) [5]", "result": "0.001 to 0.008", "unit": "mg/L"},
      {"measurement": "expected MIC value range (BMD method)", "setting": "E coli 25922 (QC strain) [6]", "result": "0.004 to 0.016", "unit": "mg/L"}
    ]},
    {"molecule": "C[C@@H](O)[C@H]1C(=O)N2C(C(=O)O)=C(SCCN=CN)C[C@H]12", "note": "[Imipenem]", "values": [
      {"measurement": "MIC", "setting": "K pneumoniae 700603", "result": 0.5, "unit": "mg/L"}
    ]},
    {"molecule": "Cc1onc(-c2ccccc2)c1C(=O)N[C@@H]1C(=O)N2[C@@H]1SC(C)(C)[C@@H]2C(=O)O", "note": "[Oxacillin]", "values": [
      {"measurement": "MIC", "setting": "[7]", "result": "> 2", "unit": "mg/L"},
      {"measurement": "MIC", "setting": "[8]", "result": "> 2", "unit": "mg/L"}
    ]},
    {"molecule": "CN(C)[C@@H]1C(O)=C(C(N)=O)C(=O)[C@@]2(O)C(O)=C3C(=O)c4c(O)cccc4[C@@](C)(O)[C@H]3C[C@@H]12", "note": "[Tetracycline]", "values": [
      {"measurement": "MIC", "setting": "[9]", "result": 2, "unit": "mg/L"},
      {"measurement": "MIC", "setting": "[10]", "result": 0.008, "unit": "mg/L"}
    ]},
    {"molecule": "CN[C@H](CC(C)C)C(=O)N[C@H]1C(=O)N[C@@H](CC(N)=O)C(=O)N[C@H]2C(=O)N[C@H]3C(=O)N[C@H](C(=O)N[C@H](C(=O)O)c4cc(O)cc(O)c4-c4cc3ccc4O)[C@H](O)c3ccc(c(Cl)c3)Oc3cc2cc(c3O[C@@H]2O[C@H](CO)[C@@H](O)[C@H](O)[C@H]2O[C@H]2C[C@](C)(N)[C@H](O)[C@H](C)O2)Oc2ccc(cc2Cl)[C@H]1O", "note": "[Vancomycin]", "values": [
      {"measurement": "MIC", "setting": "[11]", "result": 4, "unit": "mg/L"},
      {"measurement": "expected MIC value", "setting": "[12]", "result": "1 to 4", "unit": "mg/L"}
    ]},
    {"molecule": "CC1(C)S[C@@H]2[C@H](NC(=O)[C@H](N)c3ccccc3)C(=O)N2[C@H]1C(=O)O", "note": "[ampicillin]", "values": [
      {"measurement": "MIC", "setting": "[13]", "result": 16, "unit": "mg/L"},
      {"measurement": "MIC", "setting": "[14]", "result": "> 16", "unit": "mg/L"}
    ]}
  ]
}
